Results: ChEMBL document CHEMBL1146005, “Estrogen receptor beta-subtype selective tetrahydrofluorenones: use of a fused pyrazole as a phenol bioisostere” (Bioorg Med Chem Lett, 2006)

Key:
Estrogen receptor [1] = target: T1, Estrogen receptor (Homo sapiens, UniProt P03372)
T1 sequence (P03372 whole entry): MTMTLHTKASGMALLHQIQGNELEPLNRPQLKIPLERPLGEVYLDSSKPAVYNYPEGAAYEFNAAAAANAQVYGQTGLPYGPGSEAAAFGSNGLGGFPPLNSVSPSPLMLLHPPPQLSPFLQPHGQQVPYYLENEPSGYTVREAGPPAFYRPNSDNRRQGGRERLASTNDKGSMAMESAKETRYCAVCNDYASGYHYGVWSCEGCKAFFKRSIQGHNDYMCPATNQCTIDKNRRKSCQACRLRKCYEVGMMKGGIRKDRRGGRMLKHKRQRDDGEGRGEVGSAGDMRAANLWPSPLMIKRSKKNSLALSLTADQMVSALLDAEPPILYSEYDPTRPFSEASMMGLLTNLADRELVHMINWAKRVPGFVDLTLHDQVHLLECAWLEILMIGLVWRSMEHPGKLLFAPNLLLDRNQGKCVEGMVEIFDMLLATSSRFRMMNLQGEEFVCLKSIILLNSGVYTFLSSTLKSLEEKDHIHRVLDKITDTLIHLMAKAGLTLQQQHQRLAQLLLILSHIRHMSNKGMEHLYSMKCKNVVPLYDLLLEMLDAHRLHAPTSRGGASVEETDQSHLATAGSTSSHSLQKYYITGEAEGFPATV
Description: Binding affinity to human ERalpha

Estrogen receptor beta [2] = target: T2, Estrogen receptor beta (Homo sapiens, UniProt Q92731)
Description: Binding affinity to human ERbeta

[3] = AUC in Sprague-Dawley rat at 1 mg/kg, iv; type: ADME, organism-based; set-up: dose 1 mg/kg, route intravenous; details: plasma
[4] = Clearance in Sprague-Dawley rat at 1 mg/kg, iv and 2 mg/kg, po; type: ADME, organism-based; details: in vivo
[5] = Half life in Sprague-Dawley rat at 1 mg/kg, iv and 2 mg/kg, po; type: ADME, organism-based; details: in vivo
[6] = Oral bioavailability in Sprague-Dawley rat at 1 mg/kg, iv and 2 mg/kg, po; type: ADME, organism-based; details: in vivo
Estrogen receptor [7] = target: T1, Estrogen receptor; remark: listed apart in the source
Description: Agonist activity at human ERalpha transfected in HEK293 cells assessed as transactivation of alkaline phosphatase reporter gene

Estrogen receptor beta [8] = target: T2, Estrogen receptor beta; remark: listed apart in the source
Description: Agonist activity at human ERbeta transfected in HEK293 cells assessed as transactivation of alkaline phosphatase reporter gene

T2 sequence (Q92731 whole entry): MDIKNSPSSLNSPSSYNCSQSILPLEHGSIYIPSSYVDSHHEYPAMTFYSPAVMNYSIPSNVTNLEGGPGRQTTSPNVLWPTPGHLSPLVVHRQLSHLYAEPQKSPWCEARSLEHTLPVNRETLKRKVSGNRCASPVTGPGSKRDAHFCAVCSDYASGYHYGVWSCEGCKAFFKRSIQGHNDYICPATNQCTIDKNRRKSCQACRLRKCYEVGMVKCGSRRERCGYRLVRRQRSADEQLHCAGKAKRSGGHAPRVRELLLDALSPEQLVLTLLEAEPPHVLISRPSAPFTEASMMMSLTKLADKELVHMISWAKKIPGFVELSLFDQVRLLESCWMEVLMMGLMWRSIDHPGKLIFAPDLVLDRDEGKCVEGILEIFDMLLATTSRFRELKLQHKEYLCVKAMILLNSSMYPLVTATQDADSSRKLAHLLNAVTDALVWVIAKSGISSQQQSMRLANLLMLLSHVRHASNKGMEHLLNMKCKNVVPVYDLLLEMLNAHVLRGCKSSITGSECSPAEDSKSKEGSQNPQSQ

| IC50 (Estrogen receptor [1]) | IC50 (Estrogen receptor beta [2]) | AUC [3] | clearance [4] | half-life [5] | bioavailability [6] | EC50 (Estrogen receptor [7]) | EC50 (Estrogen receptor beta [8]) | Compound |
| --- | --- | --- | --- | --- | --- | --- | --- | --- |
| 49.2 nM | 1 nM |  |  |  |  |  |  | CCCC[C@@]12CCC(=O)C(C(F)(F)F)=C1c1ccc3[nH]nc(F)c3c1C2 |
| 82 nM | 1.1 nM |  |  |  |  |  |  | CC[C@@]12CCC(=O)C(Cl)=C1c1ccc3[nH]nc(F)c3c1C2 |
| 470 nM | 7.7 nM | 0.9 µM·h | 72 mL/min/kg | 0.5 h | 47% | 152 nM | 1.5 nM | CC[C@@]12CCC(=O)C(Cl)=C1c1ccc3[nH]ncc3c1C2 |
| 2420 nM | 42.5 nM |  |  |  |  |  |  | CCC12CCC(=O)C(C)=C1c1ccc3[nH]nc(Cl)c3c1C2 (racemic) |
| 1410 nM | 4.9 nM |  |  |  |  |  |  | CCCCC12CCC(=O)C(Br)=C1c1ccc3[nH]ncc3c1C2 (racemic) |
| 1480 nM | 8 nM |  |  |  |  |  |  | C[C@@]12CCC(=O)C(C(F)(F)F)=C1c1ccc3[nH]ncc3c1C2 |
| 976 nM | 12.6 nM |  |  |  |  |  |  | CCCC12CCC(=O)C(C)=C1c1ccc3[nH]ncc3c1C2 (racemic) |
| 197 nM | 1.6 nM |  |  |  |  | 33.1 nM | 0.8 nM | CCC12CCC(=O)C(Br)=C1c1ccc3[nH]nc(F)c3c1C2 (racemic) |
| 176 nM | 0.8 nM | 0.9 µM·h | 64 mL/min/kg | 0.9 h | 25% |  |  | CCCC[C@@]12CCC(=O)C(C(F)(F)F)=C1c1ccc3[nH]ncc3c1C2 |
| 23 nM | 0.3 nM |  |  |  |  |  |  | CCCC[C@@]12CCC(=O)C(CC)=C1c1ccc3[nH]nc(F)c3c1C2 |
| 663 nM | 5.4 nM |  |  |  |  |  |  | CCCC12CCC(=O)C(Br)=C1c1ccc3[nH]ncc3c1C2 (racemic) |
| 624 nM | 31.8 nM |  |  |  |  |  |  | CCC12CCC(=O)C(C)=C1c1ccc3[nH]ncc3c1C2=O (racemic) |
| 40 nM | 0.9 nM | 0.7 µM·h | 69 mL/min/kg | 1.8 h | 21% |  |  | CCCC[C@@]12CCC(=O)C(C(F)(F)F)=C1c1ccc3[nH]ncc3c1C2=O |
| > 10000 nM | 618 nM |  |  |  |  | > 1000 nM | 76 nM | CCC12CCC(=O)C=C1c1ccc3[nH]ncc3c1C2 (racemic) |
| 139 nM | 4.1 nM |  |  |  |  |  |  | CC[C@@]12CCC(=O)C(Cl)=C1c1ccc3[nH]ncc3c1C2=O |
| > 10000 nM | 4460 nM | 2 µM·h | 31 mL/min/kg | 0.8 h | 44% | 1100 nM | 935 nM | CC[C@]12CCC(=O)C(C)=C1c1ccc3[nH]ncc3c1C2 |

| IC50 (Estrogen receptor [1]) | IC50 (Estrogen receptor beta [2]) | AUC [3] | clearance [4] | half-life [5] | bioavailability [6] | EC50 (Estrogen receptor [7]) | EC50 (Estrogen receptor beta [8]) | Compound |
| --- | --- | --- | --- | --- | --- | --- | --- | --- |
| 360 nM | 2.8 nM | 1.5 µM·h | 36 mL/min/kg | 0.7 h | 74% | 50 nM | 0.6 nM | CC[C@@]12CCC(=O)C(C(F)(F)F)=C1c1ccc3[nH]ncc3c1C2 |
| 223 nM | 4 nM |  |  |  |  | 59 nM | 1.7 nM | CCC1=C2c3ccc4[nH]ncc4c3CC2(CC)CCC1=O (racemic) |
| > 10000 nM | 283 nM |  |  |  |  |  |  | CCCCC12CCC(=O)C=C1c1ccc3[nH]ncc3c1C2 (racemic) |
| 4410 nM | 69 nM |  |  |  |  |  |  | CC1=C2c3ccc4[nH]ncc4c3CC2(C)CCC1=O (racemic) |
| 93 nM | 1.1 nM |  |  |  |  |  |  | CCCC[C@@]12CCC(=O)C(CC)=C1c1ccc3[nH]ncc3c1C2 |
| 1360 nM | 7.2 nM | 1.5 µM·h | 44 mL/min/kg | 1.1 h | 51% | 104 nM | 2.1 nM | CC[C@@]12CCC(=O)C(C)=C1c1ccc3[nH]ncc3c1C2 |
| 2080 nM | 5.2 nM |  |  |  |  |  |  | CCCC[C@@]12CCC(=O)C(C(=O)OC)=C1c1ccc3[nH]ncc3c1C2 |
| 470 nM | 7.7 nM | 1 µM·h | 58 mL/min/kg | 0.9 h | 55% | > 1000 nM | 5.8 nM | CC[C@@]12CCC(=O)C(C3CC3)=C1c1ccc3[nH]ncc3c1C2 |
|  |  | 0.5 µM·h | 102 mL/min/kg | 1.5 h | 0% |  |  | CCCCC12CCC(=O)C(Br)=C1c1ccc(O)cc1C2 (racemic) |
| 1990 nM | 26 nM |  |  |  |  |  |  | CC12CCC(=O)C(Br)=C1c1ccc3[nH]ncc3c1C2 (racemic) |
| 5880 nM | 103 nM |  |  |  |  |  |  | CCC12CCC(=O)C(C)=C1c1ccc3[nH]nc(Br)c3c1C2 (racemic) |
| > 10000 nM | 207 nM |  |  |  |  | 1170 nM | 210 nM | CCC12CCC(=O)C(C(=O)OC)=C1c1ccc3[nH]ncc3c1C2 (racemic) |
| 249 nM | 2.2 nM | 0.7 µM·h | 74 mL/min/kg | 0.7 h | 64% | 65 nM | 0.7 nM | CC[C@@]12CCC(=O)C(Br)=C1c1ccc3[nH]ncc3c1C2 |
| 352 nM | 8 nM |  |  |  |  | 49 nM | 1.5 nM | CCC12CCC(=O)C(Br)=C1c1ccc3[nH]ncc3c1C2=O (racemic) |
| 1050 nM | 12 nM |  |  |  |  |  |  | CCCCC12CCC(=O)C(C)=C1c1ccc3[nH]ncc3c1C2 (racemic) |

| Compound | IC50 (Estrogen receptor [1]) | IC50 (Estrogen receptor beta [2]) | AUC [3] | clearance [4] | half-life [5] | bioavailability [6] | EC50 (Estrogen receptor [7]) | EC50 (Estrogen receptor beta [8]) |
| --- | --- | --- | --- | --- | --- | --- | --- | --- |
| O=C1CC[C@@]2(CC3CC3)Cc3c(ccc4[nH]ncc34)C2=C1Br | 230 nM | 4 nM |  |  |  |  |  |  |
| CC[C@@]12CCC(=O)C(C(F)(F)F)=C1c1ccc3[nH]ncc3c1C2=O | 58 nM | 1.5 nM | 3.2 µM·h | 15 mL/min/kg | 1.2 h | 62% | 10.4 nM | 0.4 nM |
| CCCCC12CCC(=O)C(C3CC3)=C1c1ccc3[nH]ncc3c1C2 (racemic) | 422 nM | 7 nM |  |  |  |  |  |  |
| CC[C@@]12CCC(=O)C(C(F)(F)F)=C1c1ccc3[nH]nc(F)c3c1C2 | 50.9 nM | 0.3 nM | 1.2 µM·h | 42 mL/min/kg | 1.9 h | 27% | 8.3 nM | 0.2 nM |
| O=C1CC[C@@]2(CCC3CC3)Cc3c(ccc4[nH]ncc34)C2=C1Br | 229 nM | 1.6 nM | 0.8 µM·h | 55 mL/min/kg | 1.2 h | 51% | 61 nM | 0.9 nM |
| CC[C@@]12CCC(=O)C(c3ccccc3)=C1c1ccc3[nH]ncc3c1C2 | 46 nM | 1.4 nM |  |  |  |  | 72 nM | 0.8 nM |
